# Experimental data reported in patent publication US20250002512A1, “NOVEL ANTI-[…] NE[…] AND THERAPEUTIC USES THEREOF” (MARVEL BIOTECHNOLOGY, priority 2021, published 2025).
# Experiments:
# male CD-1 mice = test: forced swim test (FST), preclinical model of depression; format: in vivo; settings: n=8/group, 50 mgs/kg orally once a day for seven days, FST on seventh day; for immobilization time (2-6 minutes): compared with fluoxetine 30 mg/kg, one-way ANOVA, Fisher LSD, FIG. 1; for latency to immobility: compared with vehicle control, FIG. 2
# Protocol: The forced swim test (FST) is a widely accepted pre-clinical model to test the anti-depressive effects of molecules (Can A, Dao D T, Arad M, Terrillion C E, Piantadosi S C, Gould T D. The Mouse Forced Swim Test. J Vis Exp. 2012; (59): 3638. doi: 10.3791/3638).
# Briefly, male CD-1 mice (approximately 25-35 g, n=8/group) were dosed orally once a day with either vehicle (2% aqueous DMSO, 0.5% carboxymethyl cellulose), compound 1 (50 mgs/kg in vehicle), compound 2 (50 mgs/kg in vehicle) or fluoxetine (aka. Prozac®, 30 mg/kg in vehicle) for seven days. Seven days is a comparatively short time to observe an anti-depressant effect with an orally dosed drug. On the seventh day, animals were tested in the FST and observed for abnormal behaviours (e.g. hallucinating).
# [1] = target: brain derived neurotrophic factor (BDNF) receptor TrkB (Homo sapiens, UniProt Q16620); settings: cited from Shen J et al.; cited from earlier work
# Sequence of brain derived neurotrophic factor (BDNF) receptor TrkB (Q16620 32-822): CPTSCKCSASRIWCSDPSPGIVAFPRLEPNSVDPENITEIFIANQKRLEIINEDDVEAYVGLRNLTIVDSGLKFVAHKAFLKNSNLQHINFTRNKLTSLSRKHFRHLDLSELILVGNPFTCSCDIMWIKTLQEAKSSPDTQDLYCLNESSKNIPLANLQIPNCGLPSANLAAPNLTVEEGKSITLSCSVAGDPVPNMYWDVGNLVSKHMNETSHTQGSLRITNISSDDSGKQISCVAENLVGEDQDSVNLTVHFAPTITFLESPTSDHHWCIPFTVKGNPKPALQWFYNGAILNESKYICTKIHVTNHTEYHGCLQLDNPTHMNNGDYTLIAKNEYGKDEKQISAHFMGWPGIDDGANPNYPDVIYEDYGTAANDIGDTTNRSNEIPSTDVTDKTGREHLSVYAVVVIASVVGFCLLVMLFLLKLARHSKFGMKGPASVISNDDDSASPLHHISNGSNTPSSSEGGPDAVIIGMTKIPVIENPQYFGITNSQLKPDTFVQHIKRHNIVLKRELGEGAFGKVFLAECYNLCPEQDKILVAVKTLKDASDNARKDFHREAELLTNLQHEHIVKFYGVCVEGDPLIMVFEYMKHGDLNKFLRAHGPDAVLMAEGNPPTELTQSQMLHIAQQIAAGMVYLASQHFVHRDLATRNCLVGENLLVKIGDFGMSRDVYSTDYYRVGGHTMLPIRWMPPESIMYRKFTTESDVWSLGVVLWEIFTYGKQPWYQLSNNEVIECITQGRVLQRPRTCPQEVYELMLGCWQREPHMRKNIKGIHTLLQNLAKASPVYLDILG
compound,measurement,setting,value
"O=C(CN1CCCC1=O)NCCc1c[nH]c2ccc(OP(=O)(O)O)cc12 [Compound 2, N-{2-[5-(dihydroxyphosphoryloxy)-1H-indol-3-yl]ethyl}(2-oxo-1-pyrrolidinyl) acetamide]",immobilization time (2-6 minutes),male CD-1 mice,significantly better than fluoxetine
same,latency to immobility,male CD-1 mice,better than vehicle control
N-[2-(5-hydroxy-1H-indol-3-yl)ethyl]-2-oxopiperidine-3-carboxyamide [HIOC],activation of BDNF receptor TrkB,[1],activate
"O=C1NCCCC1C(=O)NCCc1c[nH]c2ccc(OP(=O)(O)O)cc12 (centres unmarked) [Compound 1, N-{2-[5-(Dihydroxyphosphoryloxy)-1H-indol-3-yl]ethyl}-2-oxo-3-piperidinecarboxamide]",immobilization time (2-6 minutes),male CD-1 mice,significantly better than fluoxetine
same,latency to immobility,male CD-1 mice,better than vehicle control
